Data published in US20230085307A1, “PYRIDAZINONE COMPOUND AND HERBICIDE” (NISSAN CHEMICAL CORPORATION, priority 2019, published 2023).

Columns and labels:
false cleavers = assay: Test Example 4: herbicidal effect by soil treatment (Table 19, symbol Q); format: in vivo, false cleavers (Galium spurium)
Procedure, shortened: (§1)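 In this soil treatment, the formulated compound reached the seeds only through the soil: seeds were buried about 1.5 cm deep in sterilized diluvial soil, then the diluted emulsion was sprayed over the surface. After three weeks at 25° C. to 30° C. in a greenhouse, effects were graded on criteria from an earlier test.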

late watergrass [1] = assay: Test Example 1: herbicidal activity, application before weed generation under submerged conditions (Table 16, symbol A); format: in vivo, late watergrass (Echinochloa oryzicola)
Procedure, shortened: (§2)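 Submerged Wagner pots (alluvial soil, 4 cm water) sown with weed seeds and planted with 2.5-leaf rice seedlings; emulsifiable concentrate diluted in water applied to water surface on sowing day. Held in greenhouse at 25-30 °C; injury scored 0-5 by herbicidal rate after three weeks.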

green foxtail = assay: Test Example 5: herbicidal effect by foliage application, plastic box (Table 20, symbol G); format: in vivo, green foxtail (Setaria viridis); conditions: foliage application; for G (green foxtail) herbicidal effect grade: evaluated 3 weeks after application
Procedure, shortened: (§3)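 Plants were sown into sterilized diluvial soil under about 1.5 cm cover and kept in a greenhouse at 25° C. to 30° C. Fourteen days on, foliage received an even spray of the diluted emulsion. Herbicidal or crop effect was judged three weeks afterwards.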

lambsquarters = assay: Test Example 5: herbicidal effect by foliage application, plastic box (Table 20, symbol O); format: in vivo, lambsquarters (Chenopodium album); conditions: foliage application; for O (lambsquarters) herbicidal effect grade: evaluated 3 weeks after application
Procedure, shortened: as §3

southern crabgrass [2] = assay: Test Example 4: herbicidal effect by soil treatment (Table 19, symbol F); format: in vivo, southern crabgrass (Digitaria ciliaris)
Procedure, shortened: as §1

late watergrass [3] = assay: Test Example 2: herbicidal activity, application during weed generation under submerged conditions (Table 17, symbol A); format: in vivo, late watergrass (Echinochloa oryzicola); conditions: for herbicidal effect grade, A: late watergrass: application during weed generation under submerged conditions
Procedure, shortened: (§4)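 Mixed weed seedlings in alluvial soil under a 4 cm water layer, greenhouse-grown at 25–30° C. Compound given as a diluted emulsion into the floodwater at the 1–2 leaf stage; response graded after three weeks.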

windgrass = assay: Test Example 5: herbicidal effect by foliage application, plastic box (Table 20, symbol L); format: in vivo, windgrass (Apera spica-venti); conditions: foliage application; for L (windgrass) herbicidal effect grade: evaluated 3 weeks after application
Procedure, shortened: as §3

southern crabgrass [4] = assay: Test Example 5: herbicidal effect by foliage application, plastic box (Table 20, symbol F); format: in vivo, southern crabgrass (Digitaria ciliaris); conditions: foliage application; for F (southern crabgrass) herbicidal effect grade: evaluated 3 weeks after application
Procedure, shortened: as §3

wild oat = assay: Test Example 5: herbicidal effect by foliage application, plastic box (Table 20, symbol I); format: in vivo, wild oat (Avena fatua); conditions: foliage application; for I (wild oat) herbicidal effect grade: evaluated 3 weeks after application
Procedure, shortened: as §3

barnyard grass [5] = assay: Test Example 4: herbicidal effect by soil treatment (Table 19, symbol H); format: in vivo, barnyard grass (Echinochloa crus-galli)
Procedure, shortened: as §1

chickweed = assay: Test Example 4: herbicidal effect by soil treatment (Table 19, symbol P); format: in vivo, common chickweed (Stellaria media)
Procedure, shortened: as §1

persian speedwell = assay: Test Example 5: herbicidal effect by foliage application, plastic box (Table 20, symbol R); format: in vivo, Persian speedwell (Veronica persica); conditions: foliage application; for R (persian speedwell) herbicidal effect grade: evaluated 3 weeks after application
Procedure, shortened: as §3

oval-leafed pondweed = assay: Test Example 2: herbicidal activity, application during weed generation under submerged conditions (Table 17, symbol C); format: in vivo, oval-leafed pondweed (Monochoria vaginalis); conditions: for herbicidal effect grade, C: oval-leafed pondweed: application during weed generation under submerged conditions
Procedure, shortened: as §4

Japanese bulrush = assay: Test Example 1: herbicidal activity, application before weed generation under submerged conditions (Table 16, symbol B); format: in vivo, Japanese bulrush (Schoenoplectus juncoides)
Procedure, shortened: as §2

redroot pigweed = assay: Test Example 5: herbicidal effect by foliage application, plastic box (Table 20, symbol N); format: in vivo, redroot pigweed (Amaranthus retroflexus); conditions: foliage application; for N (redroot pigweed) herbicidal effect grade: evaluated 3 weeks after application
Procedure, shortened: as §3

barnyard grass [6] = assay: Test Example 3: herbicidal effect by foliage application, Wagner pot (Table 18, symbol H); format: in vivo, barnyard grass (Echinochloa crus-galli)
Procedure, shortened: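 Plants were sown in alluvial soil held under 0.1–0.5 cm standing water and grown 14 days in a greenhouse at 25–30 °C. An emulsifiable formulation, water-diluted to the set dose, was then sprayed onto the foliage, and effects were scored three weeks later using previously defined criteria.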

blackgrass = assay: Test Example 4: herbicidal effect by soil treatment (Table 19, symbol J); format: in vivo, blackgrass (Alopecurus myosuroides)
Procedure, shortened: as §1

[7] = amount of applied herbicide 402 g/ha
[8] = amount of applied herbicide 320 g/ha
[9] = amount of applied herbicide 214 g/ha
[10] = 214 g/ha, three weeks after application
[11] = AAH 214 g/ha, application during weed generation, submerged conditions

## CCCC(=O)Oc1c(C)nn(C)c(=O)c1-c1c(-c2ccc(SC(C)C)cc2)oc2ccc(C)cc12 [9-060]
False cleavers; [7]
  Q: false cleavers, herbicidal effect grade: 0 (Herbicidal rate of 5% or less (almost no effect))
Late watergrass [1]; [7]
  Herbicidal effect, A: late watergrass: 5 (Herbicidal rate of 90% or more (almost completely withered))
Green foxtail; 402 g/ha
  G (green foxtail) herbicidal effect grade: 5 (Herbicidal rate of 90% or more (almost completely withered))
lambsquarters; 402 g/ha
  O (lambsquarters) herbicidal effect grade: 5 (Herbicidal rate of 90% or more (almost completely withered))
Southern crabgrass [2]; [7]
  F: southern crabgrass, herbicidal effect grade: 1 (Herbicidal rate of 5% or more and less than 20%)
Late watergrass [3]; [7]
  herbicidal effect grade, A: late watergrass: 4 (Herbicidal rate of 70% or more and less than 90%)
windgrass; 402 g/ha
  L (windgrass) herbicidal effect grade: 0 (Herbicidal rate of 5% or less (almost no effect))
Southern crabgrass [4]; 402 g/ha
  F (southern crabgrass) herbicidal effect grade: 0 (Herbicidal rate of 5% or less (almost no effect))
Wild oat; 402 g/ha
  I (wild oat) herbicidal effect grade: 3 (Herbicidal rate of 40% or more and less than 70%)
Barnyard grass [5]; [7]
  H: barnyard grass, herbicidal effect grade: 0 (Herbicidal rate of 5% or less (almost no effect))
chickweed; [7]
  P: chickweed, herbicidal effect grade: 1 (Herbicidal rate of 5% or more and less than 20%)
Persian speedwell; 402 g/ha
  R (persian speedwell) herbicidal effect grade: 5 (Herbicidal rate of 90% or more (almost completely withered))
oval-leafed pondweed; [7]
  herbicidal effect grade, C: oval-leafed pondweed: 4 (Herbicidal rate of 70% or more and less than 90%)
Japanese bulrush; [7]
  Herbicidal effect, B: Japanese bulrush: 4 (Herbicidal rate of 70% or more and less than 90%)
Redroot pigweed; 402 g/ha
  N (redroot pigweed) herbicidal effect grade: 5 (Herbicidal rate of 90% or more (almost completely withered))
Barnyard grass [6]; [7]
  Herbicidal effect on H (barnyard grass), foliage application: 4 (Herbicidal rate of 70% or more and less than 90%)
blackgrass; [7]
  J: blackgrass, herbicidal effect grade: 0 (Herbicidal rate of 5% or less (almost no effect))

## CCCC(=O)Oc1c(C)nn(C)c(=O)c1-c1c(-c2ccc(COC)cc2)oc2ccc(C)cc12 [9-062]
False cleavers; [8]
  Q: false cleavers, herbicidal effect grade: 0 (Herbicidal rate of 5% or less (almost no effect))
Late watergrass [1]; [8]
  Herbicidal effect, A: late watergrass: 5 (Herbicidal rate of 90% or more (almost completely withered))
Green foxtail; 320 g/ha
  G (green foxtail) herbicidal effect grade: 5 (Herbicidal rate of 90% or more (almost completely withered))
lambsquarters; 320 g/ha
  O (lambsquarters) herbicidal effect grade: 5 (Herbicidal rate of 90% or more (almost completely withered))
Southern crabgrass [2]; [8]
  F: southern crabgrass, herbicidal effect grade: 4 (Herbicidal rate of 70% or more and less than 90%)
Late watergrass [3]; [8]
  herbicidal effect grade, A: late watergrass: 3 (Herbicidal rate of 40% or more and less than 70%)
windgrass; 320 g/ha
  L (windgrass) herbicidal effect grade: 0 (Herbicidal rate of 5% or less (almost no effect))
Southern crabgrass [4]; 320 g/ha
  F (southern crabgrass) herbicidal effect grade: 5 (Herbicidal rate of 90% or more (almost completely withered))
Wild oat; 320 g/ha
  I (wild oat) herbicidal effect grade: 0 (Herbicidal rate of 5% or less (almost no effect))
Barnyard grass [5]; [8]
  H: barnyard grass, herbicidal effect grade: 4 (Herbicidal rate of 70% or more and less than 90%)
chickweed; [8]
  P: chickweed, herbicidal effect grade: 3 (Herbicidal rate of 40% or more and less than 70%)
Persian speedwell; 320 g/ha
  R (persian speedwell) herbicidal effect grade: 5 (Herbicidal rate of 90% or more (almost completely withered))
oval-leafed pondweed; [8]
  herbicidal effect grade, C: oval-leafed pondweed: 3 (Herbicidal rate of 40% or more and less than 70%)
Japanese bulrush; [8]
  Herbicidal effect, B: Japanese bulrush: 5 (Herbicidal rate of 90% or more (almost completely withered))
Redroot pigweed; 320 g/ha
  N (redroot pigweed) herbicidal effect grade: 5 (Herbicidal rate of 90% or more (almost completely withered))
Barnyard grass [6]; [8]
  Herbicidal effect on H (barnyard grass), foliage application: 5 (Herbicidal rate of 90% or more (almost completely withered))
blackgrass; [8]
  J: blackgrass, herbicidal effect grade: 4 (Herbicidal rate of 70% or more and less than 90%)

## COc1ccc2c(-c3c(O)c(C)nn(C)c3=O)c(-c3ccccc3OC)sc2c1 [Compound No. 3-065, 5-hydroxy-4-(6-methoxy-2-(2-methoxyphenyl)benzo[b]thiophen-3-yl)-2,6-dimethylpyridazin-3(2H)-one]
False cleavers; [9]
  Q: false cleavers, herbicidal effect grade: 4 (Herbicidal rate of 70% or more and less than 90%)
Late watergrass [1]; [9]
  Herbicidal effect, A: late watergrass: 1 (Herbicidal rate of 5% or more and less than 20%)
Green foxtail; [10]
  G: green foxtail, herbicidal effect grade: 5 (Herbicidal rate of 90% or more (almost completely withered))
lambsquarters; [10]
  O: lambsquarters, herbicidal effect grade: 3 (Herbicidal rate of 40% or more and less than 70%)
Southern crabgrass [2]; [9]
  F: southern crabgrass, herbicidal effect grade: 3 (Herbicidal rate of 40% or more and less than 70%)
Late watergrass [3]; [11]
  herbicidal effect rating, A: late watergrass: 0 (Herbicidal rate of 5% or less (almost no effect))
windgrass; [10]
  L: windgrass, herbicidal effect grade: 4 (Herbicidal rate of 70% or more and less than 90%)
Southern crabgrass [4]; [10]
  F: southern crabgrass, herbicidal effect grade: 4 (Herbicidal rate of 70% or more and less than 90%)
Wild oat; [10]
  I: wild oat, herbicidal effect grade: 4 (Herbicidal rate of 70% or more and less than 90%)
Barnyard grass [5]; [9]
  H: barnyard grass, herbicidal effect grade: 5 (Herbicidal rate of 90% or more (almost completely withered))
chickweed; [9]
  P: chickweed, herbicidal effect grade: 5 (Herbicidal rate of 90% or more (almost completely withered))
Persian speedwell; [10]
  R: persian speedwell, herbicidal effect grade: 5 (Herbicidal rate of 90% or more (almost completely withered))
oval-leafed pondweed; [11]
  herbicidal effect rating, C: oval-leafed pondweed: 3 (Herbicidal rate of 40% or more and less than 70%)
Japanese bulrush; [9]
  Herbicidal effect, B: Japanese bulrush: 3 (Herbicidal rate of 40% or more and less than 70%)
Redroot pigweed; [10]
  N: redroot pigweed, herbicidal effect grade: 3 (Herbicidal rate of 40% or more and less than 70%)
Barnyard grass [6]; 214 g/ha
  herbicidal effect on barnyard grass (H): 5 (Herbicidal rate of 90% or more (almost completely withered))
blackgrass; [9]
  J: blackgrass, herbicidal effect grade: 3 (Herbicidal rate of 40% or more and less than 70%)
